# In the supplement of paper PMC11616607:
# Tested on: Kuramochi
# Assay: drug sensitivity score (DSS) from 5-point dose-response viability curve (DSS (area-under-curve based score)); higher = more sensitive (stronger growth inhibition or killing); extreme values may be limits of the assay
# Conditions: exposure time: 72 h; concentration range: 5 concentrations over 10,000-fold range
# Outline: (§1)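 Ovarian cancer and normal ovarian cell lines were tested in 384-well plates, with drugs dispensed acoustically (Echo 550) in DMSO or water at five concentrations covering a 10,000-fold range. After 1,500 cells per well were added, plates were incubated for 3 days at 37°C and 5% CO2, and viability was read by CellTiter-Glo luminescence on a PHERAstar FS. Breeze software gave a drug sensitivity score for each cell line and drug, where a higher score means greater sensitivity. A value of zero means no response.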
row,Structure (SMILES),drug sensitivity score
1,CCOc1ccn(-c2ccc(F)cc2)c(=O)c1C(=O)Nc1ccc(Oc2ccnc(N)c2Cl)c(F)c1,0
2,CCn1c(C(=O)N(C2CC2)C2CC2)cc2c3c(ncn3C)c(Nc3cc(C)n(C)n3)nc21,2.6
3,C[C@@]1(C(=O)Nc2ccc(F)nc2)CCCN1c1nc(Nc2cc(C3CC3)n[nH]2)c2cccn2n1,4.8
4,Cc1c(-c2ccc(N3CCc4cccc(C(=O)Nc5nc6ccccc6s5)c4C3)nc2C(=O)O)cnn1CC12CC3CC(CC(C3)C1)C2,0
5,Cc1nn(C)c(COc2ccc(N3CCN(S(=O)(=O)N(C)C)CC3)cc2)c1-c1cccc2c(CCCOc3cccc4ccccc34)c(C(=O)O)n(CCN3CCOCC3)c12,7.8
6,O=c1[nH]c(C2CCCN2)nc2c1oc1ccc(Cl)cc12 (centres undefined),0
7,COc1ccc(C[C@H](NC(=O)[C@H](C)NC(=O)CN2CCOCC2)C(=O)N[C@@H](Cc2ccccc2)C(=O)C2(C)CO2)cc1 (stereo in doubt) [ONX-0914],11.6
8,CC/C(=C(\c1ccc(O)cc1)c1ccc(OCCN(C)C)cc1)c1ccccc1 [4-hydroxytamoxifen],4.2
9,Nc1ncnc2c1nc(N)n2[C@@H]1O[C@H](CO)[C@@H](O)[C@H]1O [8-amino-adenosine],24.5
10,Nc1ncnc2c1nc(Cl)n2[C@@H]1O[C@H](CO)[C@@H](O)[C@H]1O [8-chloro-adenosine],5.1
11,COc1cc2c(cc1OCCCN1CCCC1)N=C(N)C21CCC1 [A-366],1.2
12,COc1ccc(S(=O)(=O)Nc2cccnc2Nc2ccc(O)cc2)cc1 [ABT-751],7.4
13,C[C@H](Nc1ncnc2[nH]cnc12)c1cc2ccc(F)cc2nc1-c1ccccn1 [AMG319],1.1
14,COCCOc1cnc2ccn([C@H](C)c3nnc4c(F)cc(-c5cnn(C)c5)cn34)c(=O)c2c1 [AMG-337],0
15,CC1CCC(n2c3cnccc3c3cnc(Nc4ccc5c(n4)CCN(C(=O)CO)C5)nc32)CC1 (centres undefined) [AMG-925],0.1
16,CC(C)[C@H](C(=O)Nc1ccc(C(=O)NO)cc1)c1ccccc1 [AR-42],9.5
17,Cc1sc2c(c1C)C(c1ccc(Cl)cc1)=N[C@@H](CC(=O)Nc1ccc(OCCOCCOCCOCCNc3cccc4c3C(=O)N(C3CCC(=O)NC3=O)C4=O)cc1)c1nnc(C)n1-2 (some centres undefined) [ARV-825],9.9
18,COc1cc(N2CCC(N3CCN(C)CC3)CC2)ccc1Nc1ncnc(Nc2ccccc2S(=O)(=O)C(C)C)n1 [ASP3026],4
19,O=C(NC1CCNCC1)c1n[nH]cc1NC(=O)c1c(Cl)cccc1Cl [AT7519],9.3
20,O=C(Nc1c[nH]nc1-c1nc2ccc(CN3CCOCC3)cc2[nH]1)NC1CC1 [AT9283],3.5
21,CC[C@H](CC#N)OC(=O)N[C@@H](C)c1cccc(NC(=O)Nc2ccc(-c3cnco3)c(OC)c2)c1 [AVN944],8
22,COc1cc(N2CCN(C)CC2)ccc1Nc1nccc(-c2cn(C)c3cnccc23)n1 [AZ191],1.4
23,COc1cc(OC2CCN(C)CC2)ccc1Nc1ncc2c(n1)n(C1CCCC1)c(=O)n2C [AZ 3146],3.9
24,CN(C)CCCOc1ccc(-c2ccc3ncc4c(c3c2)n(C2CCOCC2)c(=O)n4C)cn1 [AZD0156],0.2
25,N[C@@H]1CCCN(c2c(/C=C3\SC(=O)NC3=O)cccc2-c2ccccc2)C1 [AZD1208],1.7
26,Cc1cc(Nc2nc(N[C@@H](C)c3ncc(F)cn3)ncc2Cl)[nH]n1 [AZD1480],0
27,COc1cc2ncnc(Nc3cccc(Cl)c3F)c2cc1OC(=O)N1CCN(C)C[C@H]1C [AZD3759],0
28,Cc1[nH]nc(C(F)(F)F)c1Cc1sc2c(c1C(=O)N1C[C@](C)(O)CO1)c(=O)n(C)c(=O)n2C(C)C [AZD3965],0

# Tested on: OV90
# Assay: as above
# Conditions: exposure time: 72 h; concentration range: 5 concentrations over 10,000-fold range
# Outline: as §1
row,Structure (SMILES),drug sensitivity score
1,CCOc1ccn(-c2ccc(F)cc2)c(=O)c1C(=O)Nc1ccc(Oc2ccnc(N)c2Cl)c(F)c1,0
2,CCn1c(C(=O)N(C2CC2)C2CC2)cc2c3c(ncn3C)c(Nc3cc(C)n(C)n3)nc21,0.5
3,C[C@@]1(C(=O)Nc2ccc(F)nc2)CCCN1c1nc(Nc2cc(C3CC3)n[nH]2)c2cccn2n1,7.4
4,Cc1c(-c2ccc(N3CCc4cccc(C(=O)Nc5nc6ccccc6s5)c4C3)nc2C(=O)O)cnn1CC12CC3CC(CC(C3)C1)C2,7.6
5,Cc1nn(C)c(COc2ccc(N3CCN(S(=O)(=O)N(C)C)CC3)cc2)c1-c1cccc2c(CCCOc3cccc4ccccc34)c(C(=O)O)n(CCN3CCOCC3)c12,5.7
6,O=c1[nH]c(C2CCCN2)nc2c1oc1ccc(Cl)cc12 (centres undefined),0.2
7,COc1ccc(C[C@H](NC(=O)[C@H](C)NC(=O)CN2CCOCC2)C(=O)N[C@@H](Cc2ccccc2)C(=O)C2(C)CO2)cc1 (stereo in doubt) [ONX-0914],19.8
8,CC/C(=C(\c1ccc(O)cc1)c1ccc(OCCN(C)C)cc1)c1ccccc1 [4-hydroxytamoxifen],6
9,Nc1ncnc2c1nc(N)n2[C@@H]1O[C@H](CO)[C@@H](O)[C@H]1O [8-amino-adenosine],20.1
10,Nc1ncnc2c1nc(Cl)n2[C@@H]1O[C@H](CO)[C@@H](O)[C@H]1O [8-chloro-adenosine],3.7
11,COc1cc2c(cc1OCCCN1CCCC1)N=C(N)C21CCC1 [A-366],5.7
12,COc1ccc(S(=O)(=O)Nc2cccnc2Nc2ccc(O)cc2)cc1 [ABT-751],9.4
13,C[C@H](Nc1ncnc2[nH]cnc12)c1cc2ccc(F)cc2nc1-c1ccccn1 [AMG319],0
14,COCCOc1cnc2ccn([C@H](C)c3nnc4c(F)cc(-c5cnn(C)c5)cn34)c(=O)c2c1 [AMG-337],0
15,CC1CCC(n2c3cnccc3c3cnc(Nc4ccc5c(n4)CCN(C(=O)CO)C5)nc32)CC1 (centres undefined) [AMG-925],0
16,CC(C)[C@H](C(=O)Nc1ccc(C(=O)NO)cc1)c1ccccc1 [AR-42],12.8
17,Cc1sc2c(c1C)C(c1ccc(Cl)cc1)=N[C@@H](CC(=O)Nc1ccc(OCCOCCOCCOCCNc3cccc4c3C(=O)N(C3CCC(=O)NC3=O)C4=O)cc1)c1nnc(C)n1-2 (some centres undefined) [ARV-825],6.7
18,COc1cc(N2CCC(N3CCN(C)CC3)CC2)ccc1Nc1ncnc(Nc2ccccc2S(=O)(=O)C(C)C)n1 [ASP3026],5.2
19,O=C(NC1CCNCC1)c1n[nH]cc1NC(=O)c1c(Cl)cccc1Cl [AT7519],14.2
20,O=C(Nc1c[nH]nc1-c1nc2ccc(CN3CCOCC3)cc2[nH]1)NC1CC1 [AT9283],2.6
21,CC[C@H](CC#N)OC(=O)N[C@@H](C)c1cccc(NC(=O)Nc2ccc(-c3cnco3)c(OC)c2)c1 [AVN944],12.7
22,COc1cc(N2CCN(C)CC2)ccc1Nc1nccc(-c2cn(C)c3cnccc23)n1 [AZ191],5.9
23,COc1cc(OC2CCN(C)CC2)ccc1Nc1ncc2c(n1)n(C1CCCC1)c(=O)n2C [AZ 3146],4.8
24,CN(C)CCCOc1ccc(-c2ccc3ncc4c(c3c2)n(C2CCOCC2)c(=O)n4C)cn1 [AZD0156],1.1
25,N[C@@H]1CCCN(c2c(/C=C3\SC(=O)NC3=O)cccc2-c2ccccc2)C1 [AZD1208],0.3
26,Cc1cc(Nc2nc(N[C@@H](C)c3ncc(F)cn3)ncc2Cl)[nH]n1 [AZD1480],0
27,COc1cc2ncnc(Nc3cccc(Cl)c3F)c2cc1OC(=O)N1CCN(C)C[C@H]1C [AZD3759],0
28,Cc1[nH]nc(C(F)(F)F)c1Cc1sc2c(c1C(=O)N1C[C@](C)(O)CO1)c(=O)n(C)c(=O)n2C(C)C [AZD3965],4.2

# Tested on: OVCAR4
# Assay: as above
# Conditions: exposure time: 72 h; concentration range: 5 concentrations over 10,000-fold range
# Outline: as §1
row,Structure (SMILES),drug sensitivity score
1,CCOc1ccn(-c2ccc(F)cc2)c(=O)c1C(=O)Nc1ccc(Oc2ccnc(N)c2Cl)c(F)c1,0
2,CCn1c(C(=O)N(C2CC2)C2CC2)cc2c3c(ncn3C)c(Nc3cc(C)n(C)n3)nc21,0.3
3,C[C@@]1(C(=O)Nc2ccc(F)nc2)CCCN1c1nc(Nc2cc(C3CC3)n[nH]2)c2cccn2n1,7.2
4,Cc1c(-c2ccc(N3CCc4cccc(C(=O)Nc5nc6ccccc6s5)c4C3)nc2C(=O)O)cnn1CC12CC3CC(CC(C3)C1)C2,2.1
5,Cc1nn(C)c(COc2ccc(N3CCN(S(=O)(=O)N(C)C)CC3)cc2)c1-c1cccc2c(CCCOc3cccc4ccccc34)c(C(=O)O)n(CCN3CCOCC3)c12,5.1
6,O=c1[nH]c(C2CCCN2)nc2c1oc1ccc(Cl)cc12 (centres undefined),0
7,COc1ccc(C[C@H](NC(=O)[C@H](C)NC(=O)CN2CCOCC2)C(=O)N[C@@H](Cc2ccccc2)C(=O)C2(C)CO2)cc1 (stereo in doubt) [ONX-0914],17.1
8,CC/C(=C(\c1ccc(O)cc1)c1ccc(OCCN(C)C)cc1)c1ccccc1 [4-hydroxytamoxifen],2.1
9,Nc1ncnc2c1nc(N)n2[C@@H]1O[C@H](CO)[C@@H](O)[C@H]1O [8-amino-adenosine],19
10,Nc1ncnc2c1nc(Cl)n2[C@@H]1O[C@H](CO)[C@@H](O)[C@H]1O [8-chloro-adenosine],8
11,COc1cc2c(cc1OCCCN1CCCC1)N=C(N)C21CCC1 [A-366],0.1
12,COc1ccc(S(=O)(=O)Nc2cccnc2Nc2ccc(O)cc2)cc1 [ABT-751],5
13,C[C@H](Nc1ncnc2[nH]cnc12)c1cc2ccc(F)cc2nc1-c1ccccn1 [AMG319],0.7
14,COCCOc1cnc2ccn([C@H](C)c3nnc4c(F)cc(-c5cnn(C)c5)cn34)c(=O)c2c1 [AMG-337],0
15,CC1CCC(n2c3cnccc3c3cnc(Nc4ccc5c(n4)CCN(C(=O)CO)C5)nc32)CC1 (centres undefined) [AMG-925],0
16,CC(C)[C@H](C(=O)Nc1ccc(C(=O)NO)cc1)c1ccccc1 [AR-42],7.2
17,Cc1sc2c(c1C)C(c1ccc(Cl)cc1)=N[C@@H](CC(=O)Nc1ccc(OCCOCCOCCOCCNc3cccc4c3C(=O)N(C3CCC(=O)NC3=O)C4=O)cc1)c1nnc(C)n1-2 (some centres undefined) [ARV-825],8.2
18,COc1cc(N2CCC(N3CCN(C)CC3)CC2)ccc1Nc1ncnc(Nc2ccccc2S(=O)(=O)C(C)C)n1 [ASP3026],4.3
19,O=C(NC1CCNCC1)c1n[nH]cc1NC(=O)c1c(Cl)cccc1Cl [AT7519],9.3
20,O=C(Nc1c[nH]nc1-c1nc2ccc(CN3CCOCC3)cc2[nH]1)NC1CC1 [AT9283],6.8
21,CC[C@H](CC#N)OC(=O)N[C@@H](C)c1cccc(NC(=O)Nc2ccc(-c3cnco3)c(OC)c2)c1 [AVN944],7
22,COc1cc(N2CCN(C)CC2)ccc1Nc1nccc(-c2cn(C)c3cnccc23)n1 [AZ191],0.6
23,COc1cc(OC2CCN(C)CC2)ccc1Nc1ncc2c(n1)n(C1CCCC1)c(=O)n2C [AZ 3146],1.5
24,CN(C)CCCOc1ccc(-c2ccc3ncc4c(c3c2)n(C2CCOCC2)c(=O)n4C)cn1 [AZD0156],0
25,N[C@@H]1CCCN(c2c(/C=C3\SC(=O)NC3=O)cccc2-c2ccccc2)C1 [AZD1208],0
26,Cc1cc(Nc2nc(N[C@@H](C)c3ncc(F)cn3)ncc2Cl)[nH]n1 [AZD1480],0.5
27,COc1cc2ncnc(Nc3cccc(Cl)c3F)c2cc1OC(=O)N1CCN(C)C[C@H]1C [AZD3759],0
28,Cc1[nH]nc(C(F)(F)F)c1Cc1sc2c(c1C(=O)N1C[C@](C)(O)CO1)c(=O)n(C)c(=O)n2C(C)C [AZD3965],0
